From PubChem BioAssay (NCI)
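The compound was tested at five concentrations on cells cultured in 96-well plates, with a 48-hour exposure period. GI50: concentration for 50% inhibition of growth. At the TGI there is no net growth.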

Assays:
Experiment in all cases: growth of human tumour cells (NCI), 48 h
EKVX NSCLC = system: EKVX NSCLC
HCT-15 colon = system: HCT-15 colon
MALME-3M melanoma = system: MALME-3M melanoma
OVCAR-3 ovarian = system: OVCAR-3 ovarian
SW-620 colon = system: SW-620 colon
U251 CNS = system: U251 CNS
A498 renal = system: A498 renal
BT-549 breast = system: BT-549 breast
MCF7 breast = system: MCF7 breast
PC-3 prostate = system: PC-3 prostate

Structure (SMILES) | TGI (EKVX NSCLC) [µM] | TGI (HCT-15 colon) [µM] | TGI (MALME-3M melanoma) [µM] | TGI (OVCAR-3 ovarian) [µM] | TGI (SW-620 colon) [µM] | TGI (U251 CNS) [µM] | GI50 (A498 renal) [µM] | TGI (A498 renal) [µM] | GI50 (BT-549 breast) [µM] | TGI (BT-549 breast) [µM] | GI50 (HCT-15 colon) [µM] | GI50 (MALME-3M melanoma) [µM] | GI50 (MCF7 breast) [µM] | TGI (MCF7 breast) [µM] | GI50 (OVCAR-3 ovarian) [µM] | GI50 (PC-3 prostate) [µM] | TGI (PC-3 prostate) [µM] | GI50 (SW-620 colon) [µM] | GI50 (U251 CNS) [µM] | GI50 (EKVX NSCLC) [µM]
CCCCCCCCCCCCCCCc1nc(SCC(=O)O)n[nH]1 | > 100 | > 100 | > 100 | > 100 | > 100 | 81.2 |  |  |  |  |  |  |  |  |  |  |  |  |  | 
COc1cccc(-c2nn(C)c3sc(C(=O)NCCN4CCN(c5ccccc5F)CC4)cc23)c1 |  | 15.5 | 53.5 | > 100 | > 100 | 59.5 | 1.29 | 27.3 | > 100 | > 100 | 3.18 | 9.49 | 6.54 | > 100 | 20.6 | 11.5 | > 100 | 33.7 | 7.14 | 
OC1/C(=C/c2ccccc2)CNC/C1=C\c1ccccc1 (configuration not stated) | > 100 | > 100 | > 100 | > 100 | > 100 | > 100 |  | > 100 |  |  |  |  |  |  |  |  |  |  |  | 
C/C(=N\O)c1ccc(Nc2cc(-c3ccccc3)nc3c(O)cccc23)cc1 | > 100 | 26.4 | 30.3 | 31.7 | 34.2 | 38.6 | 14.5 | 31 | 23.3 | 86.6 | 4.75 | 16.1 |  |  | 5.49 | 17.1 | 41.9 | 13.9 | 11.8 | 18.9
Cn1c(=O)c2nc3sc4ccccc4c(=N)n3c2n(C)c1=O | > 100 |  | > 100 |  | > 100 |  |  | > 100 |  |  |  |  |  |  |  |  |  |  |  | 
O=C1OC(/C=C/c2ccccc2)C(=O)C1=O (configuration not stated) | > 100 | > 100 | > 100 |  | > 100 | > 100 |  | > 100 |  |  |  |  |  |  |  |  |  |  |  | 
CC12CCC(C)(c3cc(O)c(O)cc31)c1cc(O)c(O)cc12 | 56.3 | 29.3 | 45.2 | 32.6 | 40.9 |  |  |  |  |  |  |  |  |  |  |  |  |  |  | 
O=c1c2ccc(Br)cc2nc(-c2ccccc2)n1NC1OC(CO)C(O)C(O)C1O (configuration not stated) | > 100 | > 100 | > 100 | > 100 | > 100 | > 100 |  | > 100 |  |  |  |  |  |  |  |  |  |  |  | 
CCOC(=O)/C(C#N)=C/c1[nH]c(C)c(C)c1C | > 100 | > 100 | > 100 | > 100 | > 100 | > 100 |  | > 100 |  |  |  |  |  |  |  |  |  |  |  | 
O=C(NCCOCCO)c1ccc(O)cc1 | 42.9 | > 100 |  |  | > 100 | > 100 |  | > 100 |  |  |  |  |  |  |  |  |  |  |  | 
C=CCOc1ccc2c(c1)CC[C@@H]1[C@@H]2CC[C@]2(C)C(=O)/C(=N/O)C[C@@H]12 |  | 7.06 | 44.4 | 25.9 | 12.2 | > 51 | 1.97 | 21.3 | 2.71 | 19.2 | 2.05 | 18 | 2.72 | 13.2 | 7.06 | 3.6 | 18.8 | 2.33 | 9.8 | 
COc1cc(Cl)c(C)cc1NC(=O)c1cc2ccccc2cc1O | 9.03 | 13.4 | 10 | 7.09 | 13.6 | 10.5 | 1.65 | 4.77 |  |  | 2.5 | 1.69 | 2.38 | 13.2 | 1.86 | 2.33 | 10.7 | 3.27 | 2.2 | 1.65
CCC1(O)CC(c2ccccc2)N(C)C(c2ccccc2)C1 (configuration not stated) | > 100 | > 100 | > 100 | > 100 | > 100 | > 100 |  | > 100 |  |  |  |  |  |  |  |  |  |  |  | 
OC(c1cc2c(Cl)cc(Cl)cc2c2cc(C(F)(F)F)ccc12)C1CCCCN1 (configuration not stated) |  |  | 3.91 | 3.52 | 3.64 |  | 1.46 | 2.9 |  |  |  | 1.85 |  |  | 1.91 | 1.71 | 3.26 | 1.76 |  | 
O=C(Nc1ccc(-n2cc(-c3ccncc3)c(-c3ccc(Cl)c(O)c3)n2)cc1)c1ccc(Cl)c(C(F)(F)F)c1 | > 25 | 2.58 |  | 6.24 | 3.14 | 2.91 | 5.53 | 34.9 | 1.12 | 12.6 | 0.444 |  | 1.92 | 8.6 | 2.03 | 1.15 | 30.8 | 1.48 | 0.895 | 4.65
COc1cc(C2C(C(=O)Nc3ccccc3C)=C(C)NC(C)=C2C(=O)Nc2ccccc2C)ccc1O | > 100 |  | > 100 | > 100 | > 100 | > 100 |  | > 100 |  |  |  |  |  |  |  |  |  |  |  | 
C[C@]12CC[C@H](O)CC1CCC[C@@H]2O (some centres not stated) | > 100 | > 100 | > 100 | > 100 | > 100 | > 100 |  | > 100 |  |  |  |  |  |  |  |  |  |  |  | 
CCN(CC)[C@@H]1c2cc3c(cc2C(c2cc(OC)c(O)c(OC)c2)C2C(=O)CO[C@@H]21)OCO3 (some centres not stated) | > 100 | > 100 | > 100 |  | > 100 | > 100 |  | > 100 |  |  |  |  |  |  |  |  |  |  |  | 
Fc1cccc(C2SCc3nc4ccccc4n32)c1 (configuration not stated) | > 100 |  | > 100 | > 100 | > 100 |  |  |  |  |  |  |  |  |  |  |  |  |  |  | 
Cc1cc(=O)[nH]c2c1C(=O)C(=O)C=C2 | > 100 | > 100 | 96.8 |  | 67.8 | 63.5 |  |  | 57.8 | > 100 | 60.5 | 29.8 | 29 | 60.6 |  | 71 | > 100 | 24.7 | 23.8 | 54
O=c1cc(/C=C/c2ccccc2)c2ccc(O/C(=C\c3ccccc3)c3nc4ccccc4c(=O)o3)cc2o1 | > 100 | > 100 | > 100 | 81.1 | > 100 | > 100 |  | > 100 |  |  |  |  |  |  |  |  |  |  |  | 
Cn1c(=O)ccc2cc(C(=O)c3ccccc3)ccc21 | > 100 | > 100 | > 100 | > 100 | > 100 | > 100 |  | > 100 |  |  |  |  |  |  |  |  |  |  |  | 
